Here are results for three molecules from patent US12685776B2, “Arginine methyltransferase 5 (PRMT5) degraders and uses thereof” (DANA-FARBER CANCER INSTITUTE, INC., priority 2020, dated 2026).

Structures are written as SMILES.

One series deals with PRMT5/MEP50 (Homo sapiens, UniProt O14744). Description: PRMT5 activity inhibition, AlphaLISA assay. Format: biochemical. The note with it: PRMT5/MEP50 with biotinylated histone tail, FIG. 2A. Here is the method:
PMRT5 inhibition in HEK 293 WT cells was determined by AlphaLISA® assay (PerkinElmer®) according to manufacturer's instructions. The biotinylated Histone 4 […] histone tail was incubated with PRMT5/MEP50 and inventive bifunctional compounds 1-9, cereblon-based bifunctional compound PRMT5-58, PRMT5 inhibitors EPZ15666 and LLY-283 and RPN13 inhibitor RA190. Then the H4R3symetric Me2 antibody coated beads together with streptavidin beads were incubated together. Assays were processed by EnVision® multimode plate reader (PerkinElmer®).

For a further series, the system named is H661 cells. Description: Cell-proliferation assay (CellTiter-Glo 2.0) in H661 cells. It is filed as cell-based, human. Conditions: FIG. 3B. Here is the method:
(§1) Inventive bifunctional compounds 1 and 2 were tested in the A427 (anon-small cell lung cancer (NSCLC) cell line) and H661(human lung large cell carcinoma) cells. CellTiter-Glo® 2.0 Cell Viability Assay (Promega™) was used to measure cell growth (proliferation) inhibition and to report the ATP level reduction in cells after treatment with the bifunctional compounds.
(In ATP-based viability assays light output follows the ATP content of the culture.)

The test system of another series is A427 cells. Briefly: Cell-proliferation assay (CellTiter-Glo 2.0) in A427 cells. Format: cell-based. Conditions: FIG. 3A. Here is the method: as §1
For another series, the system named is HL60 cells. Description: Immunoblot analysis of HL60 cells, blotted targets. The note with it: FIG. 4A. It is filed as cell-based. Here is the method:
FIG. 4A is an image showing an immunoblot analysis of HL60 cells treated with different concentrations (μM) of inventive bifunctional compound 13 for 24 hours and 48 hours.
(§2) Protein lysates were subjected to immunoblot analysis using anti-Rpn13, anti-betaActin, anti-H4R3Me2s, anti-H3, anti-RPN1 and anti-RPN10.

Another series has as its target T1, PRMT5 (Homo sapiens, UniProt O14744).
T1 construct: endogenous in cells; host or cells: HL60
Description: Immunoblot analysis of HL60 cells, PRMT5 degradation. It is filed as cell-based. Conditions: 24 hours, FIG. 4B. Here is the method:
(§3) FIG. 4B is an image showing an immunoblot analysis of HL60 cells treated with different concentrations (μM) of inventive bifunctional compound 14 for 24 hours.
as §2
On the technique in general: In western blotting, separated proteins are transferred to a membrane and probed.

The next series addresses T2, RPN13 (Homo sapiens, UniProt Q16186).
T2 construct: endogenous in cells; host or cells: HL60
Briefly: Immunoblot analysis of HL60 cells, RPN13 degradation. It is filed as cell-based. The note with it: 24 hours, FIG. 4B. Here is the method: as §3, §2

T2 sequence (Q16186 whole entry): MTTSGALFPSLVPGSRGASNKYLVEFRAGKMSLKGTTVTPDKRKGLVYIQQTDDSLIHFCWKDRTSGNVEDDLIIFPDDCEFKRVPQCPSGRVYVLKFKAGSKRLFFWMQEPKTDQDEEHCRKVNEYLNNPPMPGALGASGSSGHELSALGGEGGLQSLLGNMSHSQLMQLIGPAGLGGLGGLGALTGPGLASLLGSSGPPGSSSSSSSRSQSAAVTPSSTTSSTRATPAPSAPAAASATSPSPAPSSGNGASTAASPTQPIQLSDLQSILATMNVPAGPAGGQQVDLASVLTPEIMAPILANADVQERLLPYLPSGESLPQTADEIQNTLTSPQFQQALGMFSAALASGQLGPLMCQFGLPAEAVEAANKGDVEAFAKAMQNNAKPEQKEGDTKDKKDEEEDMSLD
T1 sequence (O14744 whole entry): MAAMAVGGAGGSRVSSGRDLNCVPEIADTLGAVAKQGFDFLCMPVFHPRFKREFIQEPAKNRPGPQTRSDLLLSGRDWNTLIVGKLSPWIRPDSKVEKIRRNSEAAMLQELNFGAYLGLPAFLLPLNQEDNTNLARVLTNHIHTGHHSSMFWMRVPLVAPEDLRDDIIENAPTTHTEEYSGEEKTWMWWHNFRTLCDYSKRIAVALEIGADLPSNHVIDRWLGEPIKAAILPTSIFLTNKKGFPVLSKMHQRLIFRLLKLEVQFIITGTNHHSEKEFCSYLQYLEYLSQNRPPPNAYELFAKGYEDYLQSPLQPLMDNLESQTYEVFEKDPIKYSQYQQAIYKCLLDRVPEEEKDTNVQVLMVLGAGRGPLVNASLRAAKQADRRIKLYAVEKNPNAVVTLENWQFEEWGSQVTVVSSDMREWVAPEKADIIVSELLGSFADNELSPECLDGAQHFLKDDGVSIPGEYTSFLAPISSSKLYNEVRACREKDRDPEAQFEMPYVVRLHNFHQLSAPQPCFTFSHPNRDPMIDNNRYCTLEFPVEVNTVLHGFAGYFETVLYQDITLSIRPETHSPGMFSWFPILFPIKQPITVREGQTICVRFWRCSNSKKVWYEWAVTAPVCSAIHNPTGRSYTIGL
T1 sequence (Q9BQA1 whole entry partner): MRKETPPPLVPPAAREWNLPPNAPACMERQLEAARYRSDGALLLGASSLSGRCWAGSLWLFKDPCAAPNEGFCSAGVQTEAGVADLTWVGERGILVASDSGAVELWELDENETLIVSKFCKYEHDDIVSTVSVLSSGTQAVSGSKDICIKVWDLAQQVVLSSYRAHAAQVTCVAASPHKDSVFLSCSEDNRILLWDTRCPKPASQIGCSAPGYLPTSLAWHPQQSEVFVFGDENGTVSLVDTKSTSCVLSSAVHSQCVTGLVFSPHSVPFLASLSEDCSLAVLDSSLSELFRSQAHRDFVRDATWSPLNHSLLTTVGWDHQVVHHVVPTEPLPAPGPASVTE
PRMT5/MEP50, sequence (O14744 whole entry): as the sequence (O14744 whole entry) above
PRMT5/MEP50, sequence (Q9BQA1 whole entry partner): as the sequence (Q9BQA1 whole entry partner) above

With `O=C(CCCC(=O)N[C@@H](Cc1ccccc1)C(=O)N1C/C(=C\c2ccc(Cl)c(Cl)c2)C(=O)/C(=C/c2ccc(Cl)c(Cl)c2)C1)NCCCC(=O)N1CC(Nc2cc(C(=O)NC[C@H](O)CN3CCc4ccccc4C3)ncn2)C1` [Compound 1, N1-((S)-1-(3,5-bis((E)-3,4-dichlorobenzylidene)-4-oxopiperidin-1-yl)-1-oxo-3-phenylpropan-2-yl)-N5-(4-(3-((6-(((S)-3-(3,4-dihydroisoquinolin-2(1H)-yl)-2-hydroxypropyl)carbamoyl)pyrimidin-4-yl)amino)azetidin-1-yl)-4-oxobutyl)glutaramide], the PRMT5 activity inhibition entry at PRMT5/MEP50 is given as “successfully inhibited PRMT5 function”. Moreover, the “inhibition of cell growth (proliferation)” value in the series with H661 cells and in the series on A427 cells was “effectively inhibited growth” throughout.

Consider `O=C(CNc1cc(C(=O)NC[C@H](O)CN2CCc3ccccc3C2)ncn1)NCCCCCCC(=O)N[C@@H](Cc1ccccc1)C(=O)N1C/C(=C\c2ccc([N+](=O)[O-])cc2)C(=O)/C(=C/c2ccc([N+](=O)[O-])cc2)C1` [Compound 13, 6-((2-((7-(((S)-1-(3,5-bis((E)-4-nitrobenzylidene)-4-oxopiperidin-1-yl)-1-oxo-3-phenylpropan-2-yl)amino)-7-oxoheptyl)amino)-2-oxoethyl)amino)-N-((S)-3-(3,4-dihydroisoquinolin-2(1H)-yl)-2-hydroxypropyl)pyrimidine-4-carboxamide], for which the “degradation of blotted targets” value in the series with HL60 cells (24 and 48 hours) is given as “minimum degradation”. For the same molecule, the “concentration tolerated in the cell” value in the series with HL60 cells is recorded as “up to 10 μM”.

`O=C(CCCC(=O)N1CCC(Nc2cc(C(=O)NC[C@@H](O)CN3CCc4ccccc4C3)ncn2)CC1)N[C@@H](Cc1ccccc1)C(=O)N1C/C(=C\c2ccc(Cl)c(Cl)c2)C(=O)/C(=C/c2ccc(Cl)c(Cl)c2)C1` [Compound 14, 6-((1-(5-(((S)-1-(3,5-bis((E)-3,4-dichlorobenzylidene)-4-oxopiperidin-1-yl)-1-oxo-3-phenylpropan-2-yl)amino)-5-oxopentanoyl)piperidin-4-yl)amino)-N-((R)-3-(3,4-dihydroisoquinolin-2(1H)-yl)-2-hydroxypropyl)pyrimidine-4-carboxamide]: at PRMT5, the “concentration resulting in degradation of PRMT5” value came to 1 µM and the “concentration with complete loss of PRMT5” value came to 3 µM. Also, on RPN13, the “concentration resulting in degradation of RPN13” value stood at 1 µM and the “concentration with complete loss of RPN13” value was 3 µM.
